Assay results: patent US8058242B2, “Chimeric proteins with natriuretic activity” (The University of Queensland, priority 2004, dated 2011)
Several values for one entry are separate records, joined by “and”; a condition that tells them apart may be missing. Equal entries are not always repeated. Positions of bridges follow the written chain, without caps; N, C: chain ends. Residues, ends and D or L forms follow the SMILES beside them.

Key:
conscious rabbits = assay: Blood pressure and heart rate in conscious rabbits, intravenous infusion dose-response (Example 8); conditions: for recovery of MAP, in words: 2 hours after infusion; for MAP at final dose / Recovery (MAP) / Recovery Delta SED (MAP) / Treatment Effect, change of mean blood pressure during the infusion: Table 10B; for Recovery (MAP) / Recovery Delta SED (MAP): after a 2 hour recovery period; for Treatment Effect, change of mean blood pressure during the infusion: final dose, groups 2B and 2C
[1] = target: T1, Natriuretic Peptide Receptor-A (NPR-A) signaling in MDCK cells (Canis lupus familiaris, UniProt A0A8I3MHU3); format: cell-based, canine; conditions: stimulation of cGMP accumulation in MDCK cells; for EC50: read-out: EC50 (M) ± Standard Error
T1 sequence (A0A8I3MHU3 32-1060): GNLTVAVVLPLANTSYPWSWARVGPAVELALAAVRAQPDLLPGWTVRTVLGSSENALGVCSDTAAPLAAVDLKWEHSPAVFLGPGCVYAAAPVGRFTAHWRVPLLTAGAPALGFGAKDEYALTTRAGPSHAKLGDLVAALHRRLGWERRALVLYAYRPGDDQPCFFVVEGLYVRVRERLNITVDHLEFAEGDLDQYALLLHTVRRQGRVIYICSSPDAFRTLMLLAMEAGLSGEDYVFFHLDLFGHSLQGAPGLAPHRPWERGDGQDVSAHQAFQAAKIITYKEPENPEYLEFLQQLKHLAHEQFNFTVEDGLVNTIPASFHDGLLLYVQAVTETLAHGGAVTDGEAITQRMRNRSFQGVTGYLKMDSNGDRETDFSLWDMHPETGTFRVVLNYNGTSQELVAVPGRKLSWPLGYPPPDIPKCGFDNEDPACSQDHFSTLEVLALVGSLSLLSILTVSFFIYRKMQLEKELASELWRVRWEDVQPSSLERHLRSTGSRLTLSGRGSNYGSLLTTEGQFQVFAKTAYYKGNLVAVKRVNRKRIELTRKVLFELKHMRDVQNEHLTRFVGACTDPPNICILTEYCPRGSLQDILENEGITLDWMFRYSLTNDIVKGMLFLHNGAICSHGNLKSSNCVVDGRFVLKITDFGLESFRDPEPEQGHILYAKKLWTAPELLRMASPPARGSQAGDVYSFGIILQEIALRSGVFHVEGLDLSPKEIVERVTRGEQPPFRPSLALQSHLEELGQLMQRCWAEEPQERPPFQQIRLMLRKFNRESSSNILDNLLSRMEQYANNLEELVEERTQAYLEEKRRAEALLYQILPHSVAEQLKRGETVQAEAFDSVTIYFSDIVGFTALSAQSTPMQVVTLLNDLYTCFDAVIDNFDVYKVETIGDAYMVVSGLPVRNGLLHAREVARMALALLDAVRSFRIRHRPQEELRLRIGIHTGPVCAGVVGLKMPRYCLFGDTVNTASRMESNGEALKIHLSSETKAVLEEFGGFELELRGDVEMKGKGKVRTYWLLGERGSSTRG

[2] = tested on: denuded aortic rings, GC A receptor; assay: Relaxation of noradrenaline constricted endothelium-denuded aortic rings (Example 11); set-up: species or system rat; conditions: GC-A mediated
Experimental: Male Sprague Dawley rats were killed and the descending thoracic aorta rapidly removed and flushed with physiological solution. After being cleared of adhering fat and connective tissue, 5 mm rings were mounted under 10 g resting tension, between two stainless steel hooks, in organ baths (37° C.) containing carbogenated (95% O2 and 5% CO2) physiological salt solution of the following composition (mM): NaCl, 118.4; NaHCO3, 25; glucose, 11; KCl, 4.7; MgSO4, 1.2; KH2PO4, 1.2 and CaCl2, 2.5. The lower hook was attached to a tissue holder and the upper hook to a force displacement transducer (Grass FTO3). Where indicated endothelial cells were removed by gentle rubbing of the intimal surface with a wire. To confirm the presence or absence of endothelial cells, tissues were precontracted with a sub-maximal concentration of phenylephrine (0.3 μM) and the response to acetylcholine (ACh, 10 μM) observed. Ach-induced relaxation greater than 80% of maximum indicated the presence of endothelium; whereas Ach-induced relaxation less than 10% indicated the absence of endothelium. Ring preparations under resting tension were conditioned by two contraction/relaxation cycles with 40 mM KCl, contracted by a third application of 40 mM KCl and then relaxed with different doses of the venom peptides. Responses were expressed as a percentage relaxation of the precontraction by KCl.
In addition to the peptides tested in example 3, a series of 13 analogs corresponding to the 2a, 2b and 2c grouping of peptides were examined for their ability to dilate noradrenaline constricted aortic rings. The degree of constriction was expressed as a percentage of the KCl induced constriction. The aortic rings were prepared in a manner similar to the method described in example 3. […]. In each case there were at least 3 separate aortic rings tested per peptide and all were denuded of endothelium to ensure responses were confined to the GC A receptor.

Compound	recovery of MAP, in words (conscious rabbits)	MAP at final dose (conscious rabbits) [mm Hg]	Recovery (MAP) (conscious rabbits) [mm Hg]	Recovery Delta SED (MAP) (conscious rabbits) [mm Hg]	Treatment Effect, change of mean blood pressure during the infusion (conscious rabbits) [mm Hg]	−Log10 EC50 (pEC50) ± Standard Error [1]	EC50 [1] [M]	Mean relaxation SEM of denuded aortic rings expressed as % of KCl response [2]
CC[C@H](C)[C@@H]1NC(=O)[C@H](CCCNC(=N)N)NC(=O)[C@H](CC(=O)O)NC(=O)[C@H](CC(C)C)NC(=O)[C@@H]2CCCN2C(=O)[C@H](Cc2ccccc2)NC(=O)CNC(=O)[C@H](Cc2ccccc2)NC(=O)[C@@H](NC(=O)[C@@H]2CCCN2C(=O)[C@H](CC(=O)O)NC(=O)[C@H](Cc2ccc(O)cc2)NC(=O)[C@H](CCCCN)NC(=O)[C@@H](NC(=O)[C@@H](N)CCC(=O)O)C(C)C)CSSC[C@@H](C(=O)N[C@@H](CC(N)=O)C(=O)N[C@@H](CCCNC(=N)N)C(=O)N[C@H](C(=O)N[C@@H](CCSC)C(=O)N[C@@H](CCC(N)=O)C(=O)N[C@@H](CC(N)=O)C(=O)N2CCC[C@H]2C(=O)N2CCC[C@H]2C(=O)N[C@@H](CCCCN)C(=O)N[C@@H](CCCCN)C(=O)N[C@@H](Cc2ccccc2)C(=O)N[C@@H](CO)C(=O)NCC(=O)N[C@@H](CCC(=O)O)C(=O)O)[C@@H](C)CC)NC(=O)CNC(=O)[C@H](CC(C)C)NC(=O)CNC(=O)[C@H](CO)NC(=O)[C@H](C(C)C)NC(=O)[C@H](CO)NC(=O)CNC1=O [TNPc DTT] (H-EVKYDPCFGFPLDRIGSVSGLGCNRIMQNPPKKFSGE-OH; disulfide 7-23; N-terminus assumed)	partially recovered	58.6	70.3	11.7 ± 5.2	−12.4	7.723 ± 0.1425	2.12e-08	58.9 ± 6.7%
CC[C@H](C)[C@H](NC(=O)[C@H](CCCCN)NC(=O)[C@H](CO)NC(=O)[C@H](CC(=O)O)NC(=O)[C@@H](N)CO)C(=O)NCC(=O)N[C@@H](CCCCN)C(=O)NCC(=O)N[C@H]1CSSC[C@@H](C(=O)N[C@@H](CC(N)=O)C(=O)N[C@@H](CCCNC(=N)N)C(=O)N[C@H](C(=O)N[C@@H](CCSC)C(=O)N[C@@H](CCC(N)=O)C(=O)N[C@@H](CC(N)=O)C(=O)N2CCC[C@H]2C(=O)N2CCC[C@H]2C(=O)N[C@@H](CCCCN)C(=O)N[C@@H](CCCCN)C(=O)N[C@@H](Cc2ccccc2)C(=O)N[C@@H](CO)C(=O)NCC(=O)N[C@@H](CCC(=O)O)C(=O)O)[C@@H](C)CC)NC(=O)CNC(=O)[C@H](CC(C)C)NC(=O)CNC(=O)[C@H](CO)NC(=O)[C@H](C(C)C)NC(=O)[C@H](CO)NC(=O)CNC(=O)[C@H]([C@@H](C)CC)NC(=O)[C@H](CCCNC(=N)N)NC(=O)[C@H](CC(=O)O)NC(=O)[C@H](CC(C)C)NC(=O)[C@@H]2CCCN2C(=O)[C@H](Cc2ccccc2)NC(=O)CNC(=O)[C@H](Cc2ccccc2)NC1=O [TNPc K7] (H-SDSKIGKGCFGFPLDRIGSVSGLGCNRIMQNPPKKFSGE-OH; disulfide 9-25; N-terminus assumed)	did not recover after 2 hours	59.0	62.4	3.4 ± 1.9	−14.1	7.443 ± 0.2700	5.28e-08	50% and 46.1 ± 13.5%
